“Also recorded” adds a separate entry of the source.
Tests used:
neuronal cells = assay: Intracellular calcium level [Ca2+]i in primary neurons (Fura-2 fluorescence ratio 340/380 nm); type: cell-based, rat; details: 200 μM stimulant and 2.5 mM Ca2+, without sorbicillactone A
Text: Material: The same materials as described in Perovic et al. (1998, Mech. Ageing Dev. 101:1-19) were used. Fura-2-acetoxymethylester (Fura-2-AM) was obtained from Molecular Probes (Leiden, The Netherlands), Dulbecco's modified Eagle's Medium with 4.5 g/L glucose (DMEM/HG), L-glutamic acid (L-Glu), and serotonin (5-HT) from Sigma-Aldrich (Taufkirchen, Germany) and the antibodies mouse-anti-neurofilament (68 kDa) and mouse-anti-glial-fibrillary-acidic-protein (GFAP) from Roche Diagnostics (Mannheim, Germany). Sorbicillactone A of the batch: 2208/2a was used.
Primary neurons: The cortical cell culture was produced from the brains of 17-18 day-old rat embryos, according to a modified procedure [Freshney (1987) Culture of specific cell types. In: Culture of Animal Cells. A Manual of Basic Technique, A. R. Liss, New York, S. 257-288; Perovic et al. (1994) Eur. J. Pharmacol. (Mol. Pharmacol. Sec.) 288:27-33]. After the isolation, the cerebral-hemispheres were put into Hank's Balanced Salt Solution (HBSS) without Ca^2+ and Mg^2+, and the neuronal cells were subsequently dissociated in HBSS using 0.025% (w/v) trypsin (10 min.; 37° C.). The proteolytic reaction was stopped with 10% (v/v) foetal calf serum (FCS). The single-cell suspensions were centrifuged, and the resulting pellet was taken up into Dulbecco's modified Eagles's Medium with 4.5 g/L glucose (DMEM/HG) (contains 2 mM L-glutamine, 100 mU/L insulin, and 10% (v/v) FCS). The cells were plated in a chamber with poly-L-lysine (5 μg/mL, 300 μl/cm^2) in a cell density of 2.0×10^5 cells/cm^2. After two days the DMEM/HG/10%-FCS-medium was removed and replaced with DMEM/HG/serum-free medium. Two weeks after the isolation, the immune staining took place with anti-neurofilament (68 kDa) as a marker for neurons, and anti-GFAP as a marker for glial cells. The cultures contained >80% neurons; the residual 20% were GFAP-positive cells, mainly astrocytes (Ushijima et al. (1995) Eur. J. Neurosci. 7:1353-9). The neurons were held in an atmosphere of 95% air and 5% CO2 at 37° C.
Loading of neurons with Fura-2-AM: The intracellular Ca^2+-concentration ([Ca^2+]i) was determined by fluorescence measurements. The ratio of the absorption of the Ca^2+-indicator dye Fura-2-AM at 340 and 380 nm (Grynkiewicz et al. (1985) J. Biol. Chem. 260:3440-50) was decisive. The neurons were loaded with 6 μM Fura-2-AM in DMEM/HG/serum-free medium (supplemented with 1% (w/v) bovine serum albumin) at 37° C. for 60 min. After incubation, the cells were washed two times with medium, and further incubated for 45 min at 37° C.
Calcium-calibration curve: A calcium-calibration curve was produced according to the methods of Grynkiewicz et al. (1985, J. Biol. Chem. 260:3440-50). Fluorescence pictures were obtained for each buffer at 340 and 380 nm. The quotient from both fluorescence spectra (340/380 nm) was calculated, and depicted as a calibration curve. The quotient (340/380 nm [ratio-value]) of 1.0 corresponds to 228 nM [Ca^2+]i.
Changes of the calcium level in neurons: In all experimental settings, the cells were first loaded with Fura-2-AM, and subsequently stimulated with different substances (in Locke's solution; 154 mM NaCl; 5.6 mM KCl; 3.6 mM NaHCO3; 5.6 mM glucose, and 10 mM Hepes; pH 7.4; without CaCl2). Sorbicillactone A was dissolved in a concentration of 10 mg/mL in 100% (v/v) DMSO, and stored at −20° C. In the first setting, the neurons were stimulated for 5 min with 0.1% (v/v) DMSO (control); after 10 min 200 μM L-glutamic acid (L-Glu), 200 μM serotonin (5-HT), and 2.5 mM CaCl2 were added to the cells. In a second setting, the effect of L-Glu, 5-HT, and 2.5 mM CaCl2 on the calcium level of pre-incubated neurons (each 5 min with 10 μg/mL sorbicillactone A) was tested. In all experiments, the [Ca^2+]i-level was measured for at least 20-25 min. […]

[1] = tested on: L5178Y-mouse lymphoma cells (ATCC CRL 1722); assay: Apoptosis detection (Cell Death Detection ELISA plus); type: cell-based; details: for MW ± SD (OD) / % of the control (negative): 4 hours incubation; for MW ± SD (OD): 405 nm; for % of the control (negative): negative control = 100%
Procedure: Material: RPMI1640-medium, Hepes buffered, was obtained from Sigma-Aldrich (Taufkirchen, Germany), foetal calf serum (FCS) from Gibco (Karlsruhe, Germany), and Cell Death Detection ELISA plus from Roche (Mannheim, Germany, Cat. No. 1774425). Sorbicillactone A of the batch: 2208/2a was used.
Incubation and preparation of the cells: The L5178Y-mouse lymphoma cells (ATCC CRL 1722)) were counted, and adjusted to a number of cells of 10^4 cells/mL. The sorbicillactone-A- and dihydrosorbicillactone-A-stock solution (10 mg/mL in DMSO) was diluted with medium (RPMI/Hepes with 10% FCS) to concentrations of 60, 20, and 6 μg/mL. In a 96-well-culture plate, 100 μl cell suspension (˜10^3 cells) were each pipetted to each of the 100 μl of the different dihydrosorbicillactone-A- and sorbicillactone-A-solutions. RPMI1640-medium without dihydrosorbicillactone and sorbicillactone A was used as a negative control. The final concentrations were 30, 10, and 3 μg/mL sorbicillactone A and dihydrosorbicillactone A. Four parallel settings of each sample were analysed. The cells were incubated for 4 hours at 37° C. After the incubation, the culture plate was centrifuged at […] (˜1200 rpm) for 10 min at room temperature. The supernatant was carefully pipetted off, and the cells were each overlayered with 200 μl lysis-buffer (Roche-Kit). Then, the cells were lysed for 30 min at room temperature. After the lysis, the culture plate was again centrifuged at 200×g (˜1200 rpm) for 10 min at room temperature.
ELISA: Two strips with eight wells each were taken from the streptavidin-ELISA-plate of the Roche-kit. 20 μl of the supernatant of a cell-lysis (see above) were added into each well. In doing so, the samples with 30 or 10 μg/mL of sorbicillactone A and dihydrosorbicillactone A were loaded as 4-fold, and all other as duplicate determinations. In addition to these sample, a positive control (DNA-histone-complex) was loaded. Then, 80 μl of immune reagent were added into each well. This solution consisted of incubation buffer, anti-histone-biotin, and anti-DNA-peroxidase. The incubation buffer was used as a blank value. The ELISA-plate was incubated for 2 hours in a shaking incubator at room temperature. Them the supernatants were carefully removed, and the wells were each washed 3× with 250 μl of the incubation buffer. After the washing, 100 μl of ABTS-solution were added into each “well”. Subsequently, the cells were incubated for 30 min in the dark at room temperature. The measurement took place in a multiscan at an emission wavelength of 405 nm.

[2] = Relative activity compared with sorbicillactone A (test not specified)

N[C@@H](CCC(=O)O)C(=O)O [L-glutamic acid]
increase of the 340-/380-nm-values (neuronal cells): 1.715±0.081
increase of the 340-/380-nm-values, control assumed to be 100% (neuronal cells): 307.1%

NCCc1c[nH]c2ccc(O)cc12 [Serotonin, serotonin]
increase of the 340-/380-nm-values (neuronal cells): 0.971±0.112
increase of the 340-/380-nm-values, control assumed to be 100% (neuronal cells): 219.9%

C/C=C/CC/C(O)=C1/C(=O)C(C)=C(O)[C@@]2(C)OC(=O)[C@@](C)(NC(=O)/C=C/C(=O)O)[C@@H]12 [dihydrosorbicillactone A]
MW ± SD (OD) ([1]; 3 μg/mL): 0.016 ± 0.003 OD
% of the control (negative) ([1]; 3 μg/mL): 76.2%
MW ± SD (OD) ([1]; 10 μg/mL): 0.013 ± 0.002 OD
% of the control (negative) ([1]; 10 μg/mL): 61.9%
MW ± SD (OD) ([1]; 30 μg/mL): 0.016 ± 0.004 OD
% of the control (negative) ([1]; 30 μg/mL): 76.2%
induction of apoptosis ([1]; 3, 10, and 30 μg/mL, 4 hours of incubation): did not result in an induction of apoptosis; also recorded: did not induce apoptosis
activity relative to sorbicillactone A [2]: five-fold less active

From patent publication US20070135515A1, “Method for producing sorbicillactone a” (priority 2004, published 2007)
